In article PMC12503911, “Cytotoxicity of Atropisomeric [1,1′‐Binaphthalene]‐2,2′‐Diamines (BINAM) and Analogs in Human Cancer Cells: Enantioselectivity, Structure–Activity Relationships, and Mechanism” (Chemmedchem, 2025):
Read-outs that look alike come from different tables or passages of the source.

Experiments:
Assay in all cases: biochemical
Set-up in all cases: 33PanQinase radiometric kinase activity assay, residual activity in % of control, contract lab Reaction Biology
Conditions in all cases: mean of intraexperimental duplicates, n = 1
Mps1/TTK = molecular target: T1, Mps1/TTK (Homo sapiens, UniProt P33981)
T1 sequence (P33981 1-857): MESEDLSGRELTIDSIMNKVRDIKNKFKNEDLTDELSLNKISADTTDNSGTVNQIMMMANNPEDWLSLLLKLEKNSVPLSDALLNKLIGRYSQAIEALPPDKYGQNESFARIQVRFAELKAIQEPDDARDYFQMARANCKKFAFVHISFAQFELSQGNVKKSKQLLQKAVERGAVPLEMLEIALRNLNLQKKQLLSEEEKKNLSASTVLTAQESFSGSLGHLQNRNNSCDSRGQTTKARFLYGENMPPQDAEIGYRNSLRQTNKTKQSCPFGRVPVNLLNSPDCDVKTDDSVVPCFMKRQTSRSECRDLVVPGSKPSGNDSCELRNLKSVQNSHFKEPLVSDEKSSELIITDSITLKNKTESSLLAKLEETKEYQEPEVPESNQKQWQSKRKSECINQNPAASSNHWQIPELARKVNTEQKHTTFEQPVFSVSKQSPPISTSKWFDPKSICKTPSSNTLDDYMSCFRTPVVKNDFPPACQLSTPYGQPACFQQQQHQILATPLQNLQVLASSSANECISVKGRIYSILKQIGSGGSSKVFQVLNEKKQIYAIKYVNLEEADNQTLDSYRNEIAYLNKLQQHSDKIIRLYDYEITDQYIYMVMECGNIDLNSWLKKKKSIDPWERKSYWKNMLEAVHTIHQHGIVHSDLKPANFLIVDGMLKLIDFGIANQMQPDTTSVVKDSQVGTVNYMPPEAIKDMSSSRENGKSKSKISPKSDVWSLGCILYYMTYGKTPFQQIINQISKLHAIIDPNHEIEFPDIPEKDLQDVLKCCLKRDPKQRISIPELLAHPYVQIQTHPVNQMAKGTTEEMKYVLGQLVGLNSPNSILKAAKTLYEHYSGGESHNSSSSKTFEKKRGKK
Experimental: (§1) Kinase Screening was performed at Reaction Biology (Freiburg, Germany) by using the ^33PanQinase Assay.^[ [90] ^] Based on this knowledge, we commissioned a kinase screening by the firm Reaction Biology, targeting those kinases whose inhibition has shown an indirect effect on microtubules. In our selection, we included additional kinases that are known to be involved in centrosome amplification (PLK4^[ [82] ^]), centrosome clustering (CDK1/2,^[ [83] ^] PLK1^[ [84] ^]), spindle multipolarity (SRC^[ [85] ^]), microtubule dynamics (AKT1^[ [86] ^]), and LIMK1/2 activation (ROCK1^[ [87] ^]) or are crucial for the mitosis (BUB1B, NEK2/9, WEE1^[ [88] ^]). Nonetheless, 1(R) and 1(S) at 10 µM had almost no inhibitory effects on any of the chosen kinases (Table 4 ). Only Aurora A (mean residual activity for 1(R): 86%, 1(S): 98%) and ASK1 (mean residual activity for 1(R): 90%, 1(S): 117%) were slightly enantioselectively impacted. However, we theorize that those marginal inhibitions are not explanatory for the antiproliferative and morphological effects of 1(R) on cancer cells.

PLK4 = molecular target: T2, PLK4 (Homo sapiens, UniProt O00444)
T2 sequence (O00444 1-970): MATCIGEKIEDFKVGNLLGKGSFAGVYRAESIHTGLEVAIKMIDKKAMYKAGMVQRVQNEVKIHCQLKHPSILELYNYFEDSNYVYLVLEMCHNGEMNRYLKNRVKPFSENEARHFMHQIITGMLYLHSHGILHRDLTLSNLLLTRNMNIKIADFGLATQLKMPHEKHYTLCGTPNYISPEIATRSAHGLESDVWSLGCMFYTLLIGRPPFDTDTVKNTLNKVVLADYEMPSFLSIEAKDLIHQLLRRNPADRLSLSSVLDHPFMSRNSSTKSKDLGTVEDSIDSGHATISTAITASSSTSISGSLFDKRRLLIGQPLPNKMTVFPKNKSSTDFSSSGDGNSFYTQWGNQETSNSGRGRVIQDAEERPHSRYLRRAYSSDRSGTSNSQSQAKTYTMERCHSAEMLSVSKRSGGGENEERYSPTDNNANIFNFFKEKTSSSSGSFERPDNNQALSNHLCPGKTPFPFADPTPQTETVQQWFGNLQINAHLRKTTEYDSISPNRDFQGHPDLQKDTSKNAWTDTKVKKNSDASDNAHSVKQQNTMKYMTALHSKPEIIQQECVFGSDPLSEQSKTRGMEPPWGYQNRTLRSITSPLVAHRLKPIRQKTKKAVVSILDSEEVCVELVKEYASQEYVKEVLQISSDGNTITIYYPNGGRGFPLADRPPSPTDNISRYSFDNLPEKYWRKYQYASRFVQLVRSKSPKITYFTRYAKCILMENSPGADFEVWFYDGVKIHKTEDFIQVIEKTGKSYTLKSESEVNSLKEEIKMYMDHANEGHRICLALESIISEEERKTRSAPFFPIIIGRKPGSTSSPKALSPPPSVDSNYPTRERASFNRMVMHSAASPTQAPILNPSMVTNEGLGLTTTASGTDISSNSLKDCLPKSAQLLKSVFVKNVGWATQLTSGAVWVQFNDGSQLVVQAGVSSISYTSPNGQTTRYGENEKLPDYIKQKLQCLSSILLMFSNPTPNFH
Experimental: as §1

CDK2/CycA2 = CDK2/CycA2 (Homo sapiens, UniProt P24941)
Experimental: as §1

PLK1 = PLK1 (Homo sapiens, UniProt P53350)
PLK1, sequence (P53350 whole entry): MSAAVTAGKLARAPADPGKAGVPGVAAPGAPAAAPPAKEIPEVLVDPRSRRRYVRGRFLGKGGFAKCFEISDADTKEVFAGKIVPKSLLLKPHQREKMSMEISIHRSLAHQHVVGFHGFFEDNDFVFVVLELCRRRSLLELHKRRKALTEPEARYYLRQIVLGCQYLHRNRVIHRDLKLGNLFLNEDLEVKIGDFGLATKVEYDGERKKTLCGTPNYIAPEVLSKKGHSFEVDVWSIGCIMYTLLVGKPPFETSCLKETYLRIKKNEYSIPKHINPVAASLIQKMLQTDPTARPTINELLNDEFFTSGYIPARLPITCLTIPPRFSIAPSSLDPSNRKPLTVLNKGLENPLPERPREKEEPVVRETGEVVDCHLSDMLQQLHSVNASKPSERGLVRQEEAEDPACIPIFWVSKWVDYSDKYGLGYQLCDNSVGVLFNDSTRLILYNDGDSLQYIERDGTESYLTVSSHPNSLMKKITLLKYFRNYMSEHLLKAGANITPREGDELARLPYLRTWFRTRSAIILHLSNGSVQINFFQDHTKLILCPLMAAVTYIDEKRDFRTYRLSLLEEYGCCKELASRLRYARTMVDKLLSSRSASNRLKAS
Experimental: as §1

[1] = read-out: Residual activities [% of control] / 1(S) 10 µM
[2] = read-out: Residual activities [% of control] / 1(R) 10 µM

Row | Structure (SMILES) | remaining activity at 10 µM (Mps1/TTK; [1]) [%] | remaining activity at 10 µM (PLK4; [1]) [%] | remaining activity at 10 µM (CDK2/CycA2; [1]) [%] | remaining activity at 10 µM (PLK1; [1]) [%] | remaining activity at 10 µM (Mps1/TTK; [2]) [%] | remaining activity at 10 µM (PLK4; [2]) [%] | remaining activity at 10 µM (CDK2/CycA2; [2]) [%] | remaining activity at 10 µM (PLK1; [2]) [%]
1 | Nc1ccc2ccccc2c1-c1c(N)ccc2ccccc12 [1(S), S‐BINAM] | 97 | 99 | 92 | 91 | – | – | – | –
2 | Nc1ccc2ccccc2c1-c1c(N)ccc2ccccc12 [1(R), (R)‐[1,1′‐binaphthalene]‐2,2′‐diamine] | – | – | – | – | 98 | 97 | 95 | 95
